The source of these data is patent publication US9290529B2, “Carbonic anhydrase inhibitors and method of their production” (USTAV ORGANICKE CHEMIE A BIOCHEMIE AKADEMIE VED CESKE …, priority 2011, dated 2016).

Where two headings read alike, the source gives them in different places.

One experiment has as its system MRC-5. The experiment in a line: MTT cytotoxicity assay, MRC-5. In kind it is cell-based. Particulars: MRC-5, MTT, 72 h. From the text:
One of the parameters used as the basis for colorimetric assays is the metabolic activity of viable cells. For example, a microtiter assay which uses the tetrazolium salt MTT is now widely used to quantitate cell proliferation and cytotoxicity (Hájduch et al., Cytotechnology, 19, 1996, 243-245). For instance, this assay is used in drug screening programs and in chemosensitivity testing. Because tetrazolium salts are cleaved only by metabolically active cells, these assays exclusively detect viable cells. In the case of the MTT assay, yellow soluble tetrazolium salt is reduced to a coloured water-insoluble formazan salt. After it is solubilized, the formazan formed can easily and rapidly be quantified in a conventional ELISA plate reader at 570 nm (maximum absorbancy). The quantity of reduced formazan corresponds to the number of vital cells in the culture.
This assay was performed according to Hajduch et al., Anti-Cancer Drugs 10, 1997, 1007. Cell suspensions were prepared and diluted according to the particular cell type and the expected target cell density (2 500-30 000 cells/well based on cell growth characteristics). Cells were added by pipette (80 μl) into 96-well microtiter plates. Inoculates were allowed a pre-incubation period of 24 h at 37° C. and 5% CO2 for stabilization. Four-fold dilutions, in 20-μl aliquots, of the intended test concentration were added to the microtiter plate wells at time zero. All test compound concentrations were examined in duplicate. Incubation of the cells with the test compounds lasted for 72 h at 37° C., in a 5% CO2 atmosphere at 100% humidity. At the end of the incubation period, the cells were assayed using MTT. Aliquots (10 μl) of the MTT stock solution were pipetted into each well and incubated for a further 1-4 h. After this incubation period the formazan produced was dissolved by the addition of 100 μl/well of 10% aq SDS (pH=5.5), followed by a further incubation at 37° C. overnight. The optical density (OD) was measured at 540 nm with a Labsystem iEMS Reader MF. Tumor cell survival (TCS) was calculated using the following equation: TCS=(ODdrug-exposed well/mean ODcontrol wells)×100%. The TCS50 value, the drug concentration lethal to 50% of the tumor cells, was calculated from appropriate dose-response curves.
On the technique in general: Tetrazolium dyes change colour on reduction, which living cells bring about.

For experiment [1], the target named is T1, human carbonic anhydrase IX (hCA IX) (Homo sapiens, UniProt Q16790).
T1 construct: Construct contained the extracellular CA domain (amino acid residues 139-390) cloned into the pMT/BiP/V5-His vector; His tag (from vector pMT/BiP/V5-His) (C); BiP secretion signal (from vector pMT/BiP/V5-His) (N); made in house; host or cells: Drosophila expression system (Invitrogen), insect cells, secreted into SF 900 II medium
The experiment in a line: Colorimetric carbonic anhydrase inhibition assay (CO2 hydration, phenol red), hCA IX. In kind it is biochemical. To be noted: for Selectivity to hCA IX IC50 (hCA II)/IC50 (hCA IX): ratio of IC50 values. As to the method: The compounds were assayed for inhibition activity of two isoforms of human carbonic anhydrase: hCA II and hCA IX. The human carbonic anhydrase II (HCA II) was purchased from Sigma Aldrich (Cat. No. C6165) in the form of lyophilized protein, which was dissolved before use in 10 mmol·l^−1 HEPES pH 7.0 to a concentration of 300 μmol·l^−1 and further diluted as required. Human carbonic anhydrase IX (HCA IX) was prepared by recombinant expression system in insect (Drosophila expression system, Invitrogen). […] This protein was further purified from media by chelating chromatography carrier His-Select Nickel Affinity Gel (Sigma, Cat No. P6611) and gel chromatography (Superdex 200 GL 30/300, GE Healthcare) according to the manufacturer's recommendations.
The principle of the method is based on measuring the rate of acidification of the solution that is observed as the color-shift of the acid-base-indicator (fenol red). The reaction was conducted in a glass tube placed in an ice bath (0° C., all stock solutions and enzymes were kept at the same temperature). […] This was followed by a CO2 saturation (stream flow 50 ml/min.) using a needle (18 G) up to color transition of fenol-red from red to yellow (typically 60 seconds by default). […] End point of reaction was determined by visual comparison with reference tube containing acid-base indicator (0.01% (wt./vol.) Fenol-red) and the pH adjusted to 7.0. […] Molar activity was calculated according to the formula:
[formula] where tB is the time of negative control without enzyme and tS is the time measured with an enzyme sample (and inhibitor), nprot is the number of moles of protein present in the sample. The value of IC50 for the inhibitor concentration corresponds inhibitor contraction required to decrease the specific activity to half of the value of non-inhibited enzyme. Selectivity towards CA IX inhibitor was calculated as the ratio of IC50 values for inhibition of HCA II against the value of IC50 for inhibition CA IX enzyme.

The test system of another experiment is CCRF-CEM cells. Put plainly: Flow cytometric measurement of intracellular pH (pHi), CA IX negative CCRF-CEM. Format: cell-based, human. Particulars: carboranes at 1 μM, 24 hour incubation, control 7.362. How it is done:
The effect of carborane CAIX (carbonic anhydrase IX) inhibitors was evaluated on colorectal cancer cell line HCT116 expressing CAIX enzyme versus CA IX negative cell line of T-lymphoblastic leukemia CCRF-CEM. Acetazolamide, a known inhibitor of CAIX, was used as a standard. HCT116/CCRF-CEM cells were cultivated in McCoy/RPMI Media supplemented with 10% FCS and antibiotics and seeded at high density ([…] per 3.5 cm dish) to induce pericellular hypoxia and thus stimulate CA IX expression. Measurement of pHi was assessed as described in Cianchi et al. [Cianchi F., et al. Selective inhibition of carbonic anhydrase IX decreases cell proliferation and induces […] apoptosis in human cancer cells. The Journal of Pharmacology and Experimental Therapeutics, 2010, Vol. 334, No. 3, 710-719].
[…] The pHi was measured by flow cytometry in cell cultures pretreated with 10 μM of pH sensitive probe carboxyseminaphtorhoda-fluor-1-acetoxymethyl ester (SNARF, Invitrogen, CA) for 15 min at 37° C. After incubation, the cells were washed twice with PBS. Because the addition of bicarbonate can affect pHi, all incubation and cell washes were performed in bicarbonate-free buffer. SNARF was excited at 488 nm and emitted at 580 and 640 nm. The ratio of the emission wavelengths at 640/580 nm was then used to estimate the pHi from a calibration curve. The calibration curve was prepared by nigericin clamp technique. In this method, after the SNARF labeling of untreated cells, aliquots of cell suspensions were re-suspended in a high potassium containing buffer at specific pH (usually 6.8, 7.0, 7.2, 7.4, 7.6 and 7.8). The cell suspensions were then clamped at a specific pH value by the addition of 0.03 μM nigericin (Sigma-Aldrich). Nigericin is a ionophore that allows the exchange of H for K ions, thus abolishing the pH gradient across the cell membrane. When the internal and external K concentrations are approximately equal, the pH rapidly equilibrates to the pH of the bathing solution. A total of 20,000 events were acquired on a FACS ARIA II flow cytometer (Becton. Dickinson) for further analysis.
The fluorescent ratio values (640/580 nm) calculated for each pH point were further used to construct calibration curve in Prism software (GraphPad Software, Inc., San Diego, Calif.), from which the pHi values in treated cells were determined (Table 3).

The mark [2] stands for this setting: 0° C., HEPES pH 7.0, recombinant extracellular CA domain, read-out: IC50 (hCA IX).
Where [3] appears, read: reference value in legend of FIG. 34, read-out: IC 50 CAIX (figure legend).

On to “1-methylenesulfamide-1,7-dicarba-closo-dodecaborane [CB-19]”, for which the IC50 with MRC-5 is no less than 100 µM; in experiment [1] (setting [2]) it was 2 µM. Further, in experiment [1], the “Selectivity to hCA IX IC50 (hCA II)/IC50 (hCA IX)” value (“Selectivity to hCA IX IC50” below) stood at 4.45. The substance further yielded a pHi in the experiment with CCRF-CEM cells of 7.319.
On the same counts, the results for “1-methylenesulfamide-3,3′-commo-bis(1,2-dicarba-3-cobalta(III)-closo-dodecabor)ate (1-) [CB-5]” are 93.2 ± 7 µM, 0.04 µM, 92.5 and 7.378.
On the same counts, the results for “1-methylenesulfamide-9-phenyl-1,2-dicarba-closo-dodecaborane and 1-methylene-sulfamide-12-phenyl-1,2-dicarba-closo-dodecaborane [CB-8]” are no less than 100 µM, 0.37 µM, 6.59 and 7.427.
As to “1-methylensulfamide-1,2-dicarba-closo-dodekaborane [CB-1]”, the figures for the IC50 (in the experiment with MRC-5; in experiment [1] (setting [2])) were 22.1 ± 1.1 µM and 0.37 µM, respectively. In the experiment with CCRF-CEM cells, this substance gave a pHi of 7.429.
As to “1-sulfamide-closo-1-carbadodecaborate (1-) [CB-3]”, the IC50 was no less than 100 µM in the experiment with MRC-5 and 3.6 µM in experiment [1] (setting [2]). The substance also gave a pHi in the experiment with CCRF-CEM cells of 7.362.
For the substance “7-methylensulfamide-8-phenyl-(7,8-nido-dikarbaundekabor)ate (1-) [CB-6]”, in experiment [1] (setting [2]), the IC50 was 1.08 µM. Also, the “Selectivity to hCA IX IC50” value in experiment [1] is listed as 36.2. Besides, the pHi in the experiment with CCRF-CEM cells is recorded as 7.352.
“7-methylensulfamide-(7,8-nido-dicarbaundekaborate) (1-) [CB-2]”: the IC50 with MRC-5 was no less than 100 µM; in experiment [1] (setting [2]) it was 2.6 µM. The pHi with CCRF-CEM cells amounted to 7.308.
For “8-butyloxysulfamide-3,3′-commo-bis(decahydro-1,2-dicarba-3-cobalta(III)-closo-dodekabor)ate (1-) [CB-16]”, the IC50 with MRC-5 was no less than 100 µM; in experiment [1] (setting [2]), 0.28 µM; in experiment [1] (setting [3]), 0.28 µM. The “Selectivity to hCA IX IC50” value in experiment [1] stood at 2.43. Moreover, the pHi in the experiment on CCRF-CEM cells is given as 7.442.
For “8-diethyleneoxysulfamide-3,3′-commo-bis(decahydro-1,2-dicarba-3-cobalta(III)-closo-dodekabor)ate (1-) [CB-17]”, the IC50 with MRC-5 is no less than 100 µM; in experiment [1] (setting [2]), 0.35 µM. Also, in experiment [1], the “Selectivity to hCA IX IC50” value is given as 34.3. In addition, the pHi in the experiment with CCRF-CEM cells was 7.412.
Turning to “8-ethylaminomethylsulfamide-8″-methoxy-3,3′-commo-bis(decahydro-1,2-dicarba-3-cobalta(III)-closo-dodecabor)ate (1-) [CB-15]”, the IC50 turned out to be 27 ± 4.8 µM with MRC-5 and 2 µM in experiment [1] (setting [2]). The “Selectivity to hCA IX IC50” value in experiment [1] came to 7.00. The substance also had a pHi in the experiment with CCRF-CEM cells of 7.472.
On to “8-methylensulfamide-8″-methoxy-3,3′-commo-bis(1,2-dicarba-3-cobalta(III)-closo-dodecabor)ate (1-) [CB-4]”, for which the IC50 with MRC-5 amounted to 77.9 ± 1 µM; in experiment [1] (setting [2]), 0.05 µM; in experiment [1] (setting [3]) it was 0.05 µM. The “Selectivity to hCA IX IC50” value in experiment [1] is reported as 100. In addition, in the experiment on CCRF-CEM cells, the pHi was 7.385.
On to “8-propylenesulfamide-7-phenyl-(7,8-nido-dicarbaundecabor)ate (1-) [CB-13]”, for which the values for the IC50 (in the experiment with MRC-5; in experiment [1] (setting [2])) were 75.6 ± 1.5 µM and 0.08 µM, respectively. Besides, the “Selectivity to hCA IX IC50” value in experiment [1] turned out to be 48.8. The substance further returned a pHi in the experiment with CCRF-CEM cells of 7.452.
On the same counts, the results for “9-sulfamide-9′-amine-2,2′-commo-bis(1,7,9-trikarba-2-ferra(II)-kloso-dodekabor)ane [CB-12]” are no less than 100 µM, 1.49 µM, 10.0 and 7.395.
With “10-sulfamide-9′-amine-2,2′-commo-(1,7,10-tricarba-1′,7′,9′-tricarba-2-ferra (II)-closo-dodekabor)ane [CB-10]”, the IC50 with MRC-5 was no less than 100 µM; in experiment [1] (setting [2]), 9.68 µM. Besides, the “Selectivity to hCA IX IC50” value in experiment [1] was found to be 7.0. The pHi in the experiment with CCRF-CEM cells is listed as 7.328.
As to “Di(methylenesulfamide)-1,7-dicarba-closo-dodecaborane [CB-20]”, the IC50 with MRC-5 was no less than 100 µM; in experiment [1] (setting [2]) it was 0.49 µM. In addition, the “Selectivity to hCA IX IC50” value in experiment [1] is recorded as 3.27. Also, the pHi with CCRF-CEM cells came to 7.422.
